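Where inhibition never reached the appropriate level, the endpoint shown equals the highest concentration tested. Otherwise, values were interpolated linearly from a five-concentration, 48-hour dose response in 96-well plates. At the TGI there is no net growth.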
Key:
Experiment in all cases: DTP human tumour cell line panel, 48 h
SF-295 CNS = test system: SF-295 CNS
SN12C renal = test system: SN12C renal
NCI/ADR-RES ovarian = test system: NCI/ADR-RES ovarian
TK-10 renal = test system: TK-10 renal
SK-MEL-2 melanoma = test system: SK-MEL-2 melanoma
EKVX NSCLC = test system: EKVX NSCLC
IGROV1 ovarian = test system: IGROV1 ovarian
SF-268 CNS = test system: SF-268 CNS
ACHN renal = test system: ACHN renal
COLO 205 colon = test system: COLO 205 colon
KM12 colon = test system: KM12 colon
HS 578T breast = test system: HS 578T breast
DU-145 prostate = test system: DU-145 prostate
U251 CNS = test system: U251 CNS
SW-620 colon = test system: SW-620 colon
A549 NSCLC = test system: A549 NSCLC
OVCAR-8 ovarian = test system: OVCAR-8 ovarian
SF-539 CNS = test system: SF-539 CNS
UACC-257 melanoma = test system: UACC-257 melanoma
LOX IMVI melanoma = test system: LOX IMVI melanoma
SR leukemia = test system: SR leukemia
NCI-H23 lung = test system: NCI-H23 lung
OVCAR-4 ovarian = test system: OVCAR-4 ovarian
T-47D breast = test system: T-47D breast
K-562 leukemia = test system: K-562 leukemia
HOP-62 NSCLC = test system: HOP-62 NSCLC
MOLT-4 leukemia = test system: MOLT-4 leukemia
RPMI-8226 leukemia = test system: RPMI-8226 leukemia
MDA-N = test system: MDA-N
BT-549 breast = test system: BT-549 breast
786-0 renal = test system: 786-0 renal
PC-3 prostate = test system: PC-3 prostate
NCI-H522 lung = test system: NCI-H522 lung
OVCAR-5 ovarian = test system: OVCAR-5 ovarian
HOP-92 NSCLC = test system: HOP-92 NSCLC
SK-OV-3 ovarian = test system: SK-OV-3 ovarian
UO-31 renal = test system: UO-31 renal
M14 melanoma = test system: M14 melanoma
OVCAR-3 ovarian = test system: OVCAR-3 ovarian
HL-60(TB) leukemia = test system: HL-60(TB) leukemia
SNB-75 CNS = test system: SNB-75 CNS
RXF 393 renal = test system: RXF 393 renal
HCC-2998 colon = test system: HCC-2998 colon
MCF7 breast = test system: MCF7 breast
SK-MEL-5 melanoma = test system: SK-MEL-5 melanoma
MDA-MB-435 = test system: MDA-MB-435
HCT-116 colon = test system: HCT-116 colon
HT29 colon = test system: HT29 colon
MALME-3M melanoma = test system: MALME-3M melanoma
SNB-19 CNS = test system: SNB-19 CNS
NCI-H226 lung = test system: NCI-H226 lung
A498 renal = test system: A498 renal
NCI-H460 lung = test system: NCI-H460 lung
SK-MEL-28 melanoma = test system: SK-MEL-28 melanoma
CAKI-1 renal = test system: CAKI-1 renal
CCRF-CEM leukemia = test system: CCRF-CEM leukemia
HCT-15 colon = test system: HCT-15 colon
MDA-MB-231 breast = test system: MDA-MB-231 breast
UACC-62 melanoma = test system: UACC-62 melanoma

`Cc1nc2ccc(N=Nc3c(C)noc3C)cc2[nH]1` gave a TGI (SF-295 CNS) greater than 100 µM, a TGI (SN12C renal) greater than 100 µM and a TGI (NCI/ADR-RES ovarian) greater than 100 µM. The TGI (TK-10 renal) was greater than 100 µM, the TGI (SK-MEL-2 melanoma) was greater than 100 µM and the TGI (EKVX NSCLC) was greater than 100 µM. The TGI (IGROV1 ovarian) was 34.3 µM, the TGI (SF-268 CNS) was greater than 100 µM and the TGI (ACHN renal) was 86.2 µM. It also gave a TGI (COLO 205 colon) of 34.5 µM, a TGI (KM12 colon) greater than 100 µM and a TGI (HS 578T breast) of 58.4 µM. It also gave a TGI (DU-145 prostate) greater than 100 µM, a TGI (U251 CNS) greater than 100 µM and a TGI (SW-620 colon) greater than 100 µM. For the same compound, the TGI (A549 NSCLC) was greater than 100 µM, the TGI (OVCAR-8 ovarian) was 89.6 µM and the TGI (SF-539 CNS) was 70.7 µM. For the same compound, the TGI (UACC-257 melanoma) was greater than 100 µM, the TGI (LOX IMVI melanoma) was 39.2 µM and the TGI (SR leukemia) was 69.9 µM. It also gave a TGI (NCI-H23 lung) greater than 100 µM, a TGI (OVCAR-4 ovarian) greater than 100 µM and a TGI (T-47D breast) of 15.2 µM. It also gave a TGI (K-562 leukemia) greater than 100 µM, a TGI (HOP-62 NSCLC) greater than 100 µM and a TGI (MOLT-4 leukemia) of 58.5 µM. It also gave a TGI (RPMI-8226 leukemia) of 92.4 µM, a TGI (MDA-N) greater than 100 µM and a TGI (BT-549 breast) greater than 100 µM. It also gave a TGI (786-0 renal) greater than 100 µM, a TGI (PC-3 prostate) greater than 100 µM and a TGI (NCI-H522 lung) greater than 100 µM. For the same compound, the TGI (OVCAR-5 ovarian) was greater than 100 µM, the TGI (HOP-92 NSCLC) was 60.2 µM and the TGI (SK-OV-3 ovarian) was 56.7 µM. For the same compound, the TGI (UO-31 renal) was greater than 100 µM, the TGI (M14 melanoma) was greater than 100 µM and the TGI (OVCAR-3 ovarian) was 84.2 µM. For the same compound, the TGI (HL-60(TB) leukemia) was 61.6 µM, the TGI (SNB-75 CNS) was 32.9 µM and the TGI (RXF 393 renal) was 52.4 µM. It also gave a TGI (HCC-2998 colon) greater than 100 µM, a TGI (MCF7 breast) of 84 µM and a TGI (SK-MEL-5 melanoma) of 29.8 µM. It also gave a TGI (MDA-MB-435) greater than 100 µM, a TGI (HCT-116 colon) of 91.4 µM and a TGI (HT29 colon) of 71.1 µM. The TGI (MALME-3M melanoma) was greater than 100 µM, the TGI (SNB-19 CNS) was greater than 100 µM and the TGI (NCI-H226 lung) was greater than 100 µM. The TGI (A498 renal) was 34.8 µM, the TGI (NCI-H460 lung) was greater than 100 µM and the TGI (SK-MEL-28 melanoma) was greater than 100 µM. It also gave a TGI (CAKI-1 renal) of 86.8 µM, a TGI (CCRF-CEM leukemia) greater than 100 µM and a TGI (HCT-15 colon) greater than 100 µM. The TGI (MDA-MB-231 breast) was 96.6 µM and the TGI (UACC-62 melanoma) was 75.9 µM.
`CC(=O)Oc1ccc(-c2nnc(-c3ccc(OC(C)=O)cc3)nn2)cc1` was tested, and the TGI (SF-295 CNS) was greater than 100 µM, the TGI (SN12C renal) was greater than 100 µM and the TGI (NCI/ADR-RES ovarian) was greater than 100 µM. For the same compound, the TGI (TK-10 renal) was greater than 100 µM, the TGI (SK-MEL-2 melanoma) was greater than 100 µM and the TGI (EKVX NSCLC) was greater than 100 µM. The TGI (IGROV1 ovarian) was greater than 100 µM, the TGI (SF-268 CNS) was greater than 100 µM and the TGI (ACHN renal) was greater than 100 µM. It also gave a TGI (COLO 205 colon) greater than 100 µM, a TGI (KM12 colon) greater than 100 µM and a TGI (HS 578T breast) greater than 100 µM. For the same compound, the TGI (DU-145 prostate) was greater than 100 µM, the TGI (U251 CNS) was greater than 100 µM and the TGI (SW-620 colon) was greater than 100 µM. For the same compound, the TGI (A549 NSCLC) was greater than 100 µM, the TGI (OVCAR-8 ovarian) was greater than 100 µM and the TGI (SF-539 CNS) was greater than 100 µM. For the same compound, the TGI (UACC-257 melanoma) was greater than 100 µM, the TGI (LOX IMVI melanoma) was greater than 100 µM and the TGI (SR leukemia) was 88.1 µM. The TGI (NCI-H23 lung) was greater than 100 µM, the TGI (OVCAR-4 ovarian) was greater than 100 µM and the TGI (T-47D breast) was greater than 100 µM. The TGI (K-562 leukemia) was greater than 100 µM, the TGI (HOP-62 NSCLC) was greater than 100 µM and the TGI (MOLT-4 leukemia) was greater than 100 µM. The TGI (RPMI-8226 leukemia) was greater than 100 µM, the TGI (MDA-N) was greater than 100 µM and the TGI (BT-549 breast) was greater than 100 µM. The TGI (786-0 renal) was greater than 100 µM, the TGI (PC-3 prostate) was greater than 100 µM and the TGI (NCI-H522 lung) was greater than 100 µM. For the same compound, the TGI (OVCAR-5 ovarian) was greater than 100 µM, the TGI (HOP-92 NSCLC) was greater than 100 µM and the TGI (SK-OV-3 ovarian) was greater than 100 µM. For the same compound, the TGI (UO-31 renal) was greater than 100 µM, the TGI (M14 melanoma) was greater than 100 µM and the TGI (OVCAR-3 ovarian) was greater than 100 µM. For the same compound, the TGI (HL-60(TB) leukemia) was 84 µM, the TGI (SNB-75 CNS) was greater than 100 µM and the TGI (RXF 393 renal) was greater than 100 µM. The TGI (MCF7 breast) was greater than 100 µM, the TGI (SK-MEL-5 melanoma) was greater than 100 µM and the TGI (MDA-MB-435) was greater than 100 µM. It also gave a TGI (HCT-116 colon) greater than 100 µM, a TGI (HT29 colon) greater than 100 µM and a TGI (MALME-3M melanoma) greater than 100 µM. The TGI (SNB-19 CNS) was greater than 100 µM, the TGI (NCI-H226 lung) was greater than 100 µM and the TGI (A498 renal) was greater than 100 µM. For the same compound, the TGI (NCI-H460 lung) was greater than 100 µM, the TGI (SK-MEL-28 melanoma) was greater than 100 µM and the TGI (CAKI-1 renal) was greater than 100 µM. For the same compound, the TGI (CCRF-CEM leukemia) was greater than 100 µM, the TGI (HCT-15 colon) was greater than 100 µM and the TGI (MDA-MB-231 breast) was greater than 100 µM. For the same compound, the TGI (UACC-62 melanoma) was greater than 100 µM.
`CC(C)=CCC[C@@H](C)C1=C(N)C(O)=C(C)C(=O)C1=O` showed a TGI (SF-295 CNS) greater than 75 µM, a TGI (SN12C renal) greater than 75 µM and a TGI (NCI/ADR-RES ovarian) greater than 38.8 µM. It also gave a TGI (TK-10 renal) greater than 75 µM, a TGI (SK-MEL-2 melanoma) greater than 75 µM and a TGI (EKVX NSCLC) greater than 75 µM. The TGI (IGROV1 ovarian) was greater than 75 µM, the TGI (SF-268 CNS) was greater than 75 µM and the TGI (ACHN renal) was greater than 53.4 µM. It also gave a TGI (COLO 205 colon) greater than 67.9 µM, a TGI (KM12 colon) greater than 75 µM and a TGI (HS 578T breast) greater than 75 µM. It also gave a TGI (DU-145 prostate) greater than 75 µM, a TGI (U251 CNS) greater than 75 µM and a TGI (SW-620 colon) greater than 75 µM. For the same compound, the TGI (A549 NSCLC) was greater than 75 µM, the TGI (OVCAR-8 ovarian) was greater than 61.2 µM and the TGI (SF-539 CNS) was greater than 75 µM. The TGI (UACC-257 melanoma) was greater than 75 µM, the TGI (LOX IMVI melanoma) was greater than 75 µM and the TGI (SR leukemia) was greater than 75 µM. For the same compound, the TGI (NCI-H23 lung) was greater than 75 µM, the TGI (OVCAR-4 ovarian) was greater than 75 µM and the TGI (T-47D breast) was greater than 75 µM. It also gave a TGI (K-562 leukemia) greater than 75 µM, a TGI (HOP-62 NSCLC) greater than 75 µM and a TGI (MOLT-4 leukemia) greater than 67.5 µM. For the same compound, the TGI (RPMI-8226 leukemia) was greater than 75 µM, the TGI (MDA-N) was greater than 75 µM and the TGI (BT-549 breast) was greater than 75 µM. For the same compound, the TGI (786-0 renal) was greater than 75 µM, the TGI (PC-3 prostate) was greater than 75 µM and the TGI (NCI-H522 lung) was 50.9 µM. For the same compound, the TGI (OVCAR-5 ovarian) was greater than 75 µM, the TGI (HOP-92 NSCLC) was greater than 75 µM and the TGI (SK-OV-3 ovarian) was greater than 75 µM. For the same compound, the TGI (UO-31 renal) was greater than 75 µM, the TGI (M14 melanoma) was greater than 75 µM and the TGI (OVCAR-3 ovarian) was greater than 75 µM. It also gave a TGI (HL-60(TB) leukemia) of 39.5 µM, a TGI (SNB-75 CNS) greater than 75 µM and a TGI (RXF 393 renal) greater than 75 µM. For the same compound, the TGI (HCC-2998 colon) was greater than 75 µM, the TGI (MCF7 breast) was greater than 75 µM and the TGI (SK-MEL-5 melanoma) was greater than 75 µM. The TGI (MDA-MB-435) was greater than 75 µM, the TGI (HCT-116 colon) was greater than 75 µM and the TGI (HT29 colon) was greater than 48 µM. It also gave a TGI (MALME-3M melanoma) greater than 75 µM, a TGI (SNB-19 CNS) greater than 75 µM and a TGI (NCI-H226 lung) greater than 75 µM. For the same compound, the TGI (A498 renal) was greater than 75 µM, the TGI (NCI-H460 lung) was greater than 75 µM and the TGI (SK-MEL-28 melanoma) was greater than 75 µM. It also gave a TGI (CAKI-1 renal) greater than 75 µM, a TGI (CCRF-CEM leukemia) greater than 70.9 µM and a TGI (HCT-15 colon) greater than 75 µM. It also gave a TGI (MDA-MB-231 breast) greater than 75 µM and a TGI (UACC-62 melanoma) greater than 75 µM.

Reference: PubChem BioAssay (NCI)
